From US7956053B2, “Inhibitors of tyrosine kinases” (Novartis AG, priority 2002, dated 2011)

Tests used:
Type in all cases: biochemical
Flt3 = biological target: T1, Flt3 (Homo sapiens, UniProt P36888); assay: Enzymatic Flt3 in vitro inhibition; conditions: % inhibition at 10 μM
T1 sequence (P36888 27-993): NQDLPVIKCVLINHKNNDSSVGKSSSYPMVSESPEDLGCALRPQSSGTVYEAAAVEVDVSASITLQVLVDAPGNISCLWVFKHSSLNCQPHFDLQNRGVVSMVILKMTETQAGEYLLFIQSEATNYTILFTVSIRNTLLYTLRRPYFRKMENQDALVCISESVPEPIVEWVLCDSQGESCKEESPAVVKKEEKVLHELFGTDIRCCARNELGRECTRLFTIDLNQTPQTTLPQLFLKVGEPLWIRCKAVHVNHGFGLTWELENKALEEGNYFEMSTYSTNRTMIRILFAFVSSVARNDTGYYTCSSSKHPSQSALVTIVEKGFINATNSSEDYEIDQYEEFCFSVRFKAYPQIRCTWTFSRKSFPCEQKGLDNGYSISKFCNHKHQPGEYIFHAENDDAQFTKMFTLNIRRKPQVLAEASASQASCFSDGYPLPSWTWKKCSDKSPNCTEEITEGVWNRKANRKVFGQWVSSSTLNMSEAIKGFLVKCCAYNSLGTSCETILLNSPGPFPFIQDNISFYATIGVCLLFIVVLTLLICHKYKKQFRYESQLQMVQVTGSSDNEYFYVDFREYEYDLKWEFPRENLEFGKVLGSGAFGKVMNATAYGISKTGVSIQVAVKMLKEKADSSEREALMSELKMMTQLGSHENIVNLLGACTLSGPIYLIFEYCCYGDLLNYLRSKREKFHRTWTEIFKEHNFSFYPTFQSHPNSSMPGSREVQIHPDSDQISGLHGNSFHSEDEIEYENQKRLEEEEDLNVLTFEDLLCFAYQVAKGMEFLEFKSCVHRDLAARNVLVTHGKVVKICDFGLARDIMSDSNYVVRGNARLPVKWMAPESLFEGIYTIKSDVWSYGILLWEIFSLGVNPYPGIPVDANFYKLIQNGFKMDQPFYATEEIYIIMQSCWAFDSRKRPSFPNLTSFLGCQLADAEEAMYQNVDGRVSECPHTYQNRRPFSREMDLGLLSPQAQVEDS
Experimental: (§1) Enzymatic (c-Abl, KDR, Flt3) in vitro inhibition data are presented as % inhibition at 10 μM. The measurements are made as described above in the general description.

KDR = KDR (Homo sapiens, UniProt P35968); assay: Enzymatic KDR in vitro inhibition
Experimental: Test for activity against VEGF-receptor tyrosine kinase. The test is conducted using Flt-1 VEGF-receptor tyrosine kinase. The detailed procedure is as follows: 30 μL kinase solution (10 ng of the kinase domain of Flt-1, Shibuya et al., Oncogene 5, 519-24 [1990]) in 20 mM Tris.HCl pH 7.5, 3 mM manganese dichloride (MnCl2), 3 mM magnesium chloride (MgCl2), 10 μM sodium vanadate, 0.25 mg/mL polyethylenglycol (PEG) 20000, 1 mM dithiothreitol and 3 μg/μL poly(Glu,Tyr) 4:1 (Sigma, Buchs, Switzerland), 8 μM [^33P]-ATP (0.2 μCi), 1% DMSO, and 0 to 100 μM of the compound to be tested are incubated together for 10 minutes at room temperature. The reaction is then terminated by the addition of 10 μL 0.25 M ethylenediaminetetraacetate (EDTA) pH 7. Using a multichannel dispenser (LAB SYSTEMS, USA), an aliquot of 20 μL is applied to a PVDF (=polyvinyl difluoride) Immobilon P membrane (Millipore, Bedford, USA), through a Gibco-BRL microtiter filter manifold and connected to a vacuum. Following complete elimination of the liquid, the membrane is washed 4 times successively in a bath containing 0.5% phosphoric acid (H3PO4) and once with ethanol, incubated for 10 minutes each time while shaking, then mounted in a Hewlett Packard TopCount Manifold and the radioactivity measured after the addition of 10 μL Microscint® (β-scintillation counter liquid). IC50-values are determined by linear regression analysis of the percentages for the inhibition of each compound in at least four concentrations (as a rule 0.01, 0.1, 1.0 and 10 μmol).
as §1

c-Abl = biological target: T2, c-Abl (Homo sapiens, UniProt P00519); assay: Test for activity against c-Abl protein tyrosine kinase (filter binding assay)
T2 construct: The His-tagged kinase domain of c-Abl is cloned and expressed in the baculovirus/Sf9 system; His; made in house; host or cells: baculovirus/Sf9
T2 sequence (P00519 242-493 limits assumed): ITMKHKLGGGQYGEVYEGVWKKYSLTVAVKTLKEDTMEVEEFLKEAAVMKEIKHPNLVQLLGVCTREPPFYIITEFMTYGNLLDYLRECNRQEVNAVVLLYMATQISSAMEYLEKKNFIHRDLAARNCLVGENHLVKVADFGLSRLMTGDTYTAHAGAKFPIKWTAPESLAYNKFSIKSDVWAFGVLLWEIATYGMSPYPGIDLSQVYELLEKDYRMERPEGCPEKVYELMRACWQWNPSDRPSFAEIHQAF
Experimental: Test for activity against c-Abl protein tyrosine kinase. The test is conducted as a filter binding assay as follows: The His-tagged kinase domain of c-Abl is cloned and expressed in the baculovirus/Sf9 system as described by Bhat et al., J Biol. Chem. 272, 16170-5 (1997). A protein of 37 kD (c-Abl kinase) is purified by a two-step procedure over a Cobalt metal chelate column followed by an anion exchange column with a yield of 1-2 mg/L of Sf9 cells. The purity of the c-Abl kinase is >90% as judged by SDS-PAGE after Coomassie blue staining. The assay contains: c-Abl kinase (50 ng), 20 mM Tris.HCl, pH 7.5, 10 mM MgCl2, 10 μM Na3VO4, 1 mM DTT and 0.06 μCi/assay [γ^33 P]-ATP (5 μM ATP) using 30 μg/mL poly-Ala,Glu,Lys,Tyr-6:2:5:1 (Poly-AEKY, Sigma P1152) in the presence of 1% DMSO, total volume of 30 μL. Reactions are terminated by adding 10 μL of 250 mM EDTA, and 30 μL of the reaction mixture is transferred onto Immobilon-PVDF membrane (Millipore, Bedford, Mass., USA) previously soaked for 5 min with methanol, rinsed with water, then soaked for 5 min with 0.5% H3PO4 and mounted on vacuum manifold with disconnected vacuum source. After spotting all samples, vacuum is connected and each well rinsed with 200 μL 0.5% H3PO4. Membranes are removed and washed on a shaker with 0.5% H3PO4 (4 times) and once with ethanol. Membranes are counted after drying at ambient temperature, mounting in Packard TopCount 96-well frame, and addition of 10 μL/well of Microscint™ (Packard).
as §1

KDR, sequence (P35968 20-1356): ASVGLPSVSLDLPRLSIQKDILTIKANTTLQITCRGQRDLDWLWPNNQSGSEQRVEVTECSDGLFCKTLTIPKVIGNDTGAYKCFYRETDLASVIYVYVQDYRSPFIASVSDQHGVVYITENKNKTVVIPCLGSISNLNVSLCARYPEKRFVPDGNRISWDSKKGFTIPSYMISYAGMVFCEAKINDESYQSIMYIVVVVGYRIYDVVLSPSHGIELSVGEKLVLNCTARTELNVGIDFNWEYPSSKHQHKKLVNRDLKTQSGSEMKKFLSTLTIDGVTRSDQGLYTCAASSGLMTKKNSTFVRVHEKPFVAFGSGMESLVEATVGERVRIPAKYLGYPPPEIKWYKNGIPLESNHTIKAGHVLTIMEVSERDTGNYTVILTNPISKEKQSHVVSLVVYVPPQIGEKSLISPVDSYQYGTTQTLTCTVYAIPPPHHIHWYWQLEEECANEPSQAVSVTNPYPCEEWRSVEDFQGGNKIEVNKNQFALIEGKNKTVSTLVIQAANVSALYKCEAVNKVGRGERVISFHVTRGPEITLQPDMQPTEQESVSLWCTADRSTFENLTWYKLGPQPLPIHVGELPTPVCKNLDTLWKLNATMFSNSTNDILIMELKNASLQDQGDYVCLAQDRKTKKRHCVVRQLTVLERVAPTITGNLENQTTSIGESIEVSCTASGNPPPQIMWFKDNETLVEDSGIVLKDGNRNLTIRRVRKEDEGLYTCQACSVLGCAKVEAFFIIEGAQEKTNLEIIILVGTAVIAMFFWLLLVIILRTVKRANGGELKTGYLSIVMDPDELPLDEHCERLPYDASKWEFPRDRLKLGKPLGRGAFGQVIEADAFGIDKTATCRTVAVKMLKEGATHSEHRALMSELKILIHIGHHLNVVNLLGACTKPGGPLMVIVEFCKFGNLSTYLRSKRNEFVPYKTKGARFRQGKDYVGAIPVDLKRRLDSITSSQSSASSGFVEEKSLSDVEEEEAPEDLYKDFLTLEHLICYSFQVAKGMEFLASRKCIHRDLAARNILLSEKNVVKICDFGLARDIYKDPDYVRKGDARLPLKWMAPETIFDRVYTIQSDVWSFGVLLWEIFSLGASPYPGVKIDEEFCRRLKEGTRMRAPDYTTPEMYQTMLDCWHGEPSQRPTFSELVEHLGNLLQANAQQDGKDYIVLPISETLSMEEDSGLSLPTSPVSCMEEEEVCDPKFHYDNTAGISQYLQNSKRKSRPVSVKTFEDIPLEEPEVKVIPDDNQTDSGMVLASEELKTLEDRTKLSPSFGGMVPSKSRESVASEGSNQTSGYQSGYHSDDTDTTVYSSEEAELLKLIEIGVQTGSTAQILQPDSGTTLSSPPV

Row | Flt3 %@10 μM (Flt3) | inhibition at 10 µM (KDR) | inhibition at 10 µM (c-Abl) | KDR %@10 μM (KDR; % inhibition at 10 μM) | Abl %@10 μM (c-Abl; % inhibition at 10 μM) | Molecule
1 | 41% | 88% | 98% | – | – | CCN(CC)c1cccc(NC(=O)c2ccc(C)c(Nc3nccc(-c4cccnc4)n3)c2)c1 [Example 67, N-[3-(Diethylamino)phenyl]-4-methyl-3-[[4-(3-pyridinyl)-2-Pyrimidinyl]amino]benzamide]
2 | – | 74% | 69% | – | – | Cc1ccc(C(=O)NCc2ccc(C(F)(F)F)cc2)cc1Nc1nccc(-c2cccnc2)n1 [Example 54, 4-Methyl-3-[[4-(3-pyridinyl)-2-pyrimidinyl]amino]-N-[[4-(trifluoromethyl)phenyl]methyl]benzamide]
3 | – | 56% | 55% | – | – | Cc1ccc(C(=O)NCC(N)=O)cc1Nc1nccc(-c2cccnc2)n1 [Example 26, N-(2-Amino-2-oxoethyl)-4-methyl-3-[[4-(3-pyridinyl)-2-pyrimidinyl]amino]benzamide]
4 | – | 73% | 97% | – | – | Cc1ccc(C(=O)Nc2ccc(CN3CCN(C)CC3)cc2)cc1Nc1nccc(-c2cccnc2)n1 [Example 2, N-[4-Methyl-3-[[4-(3-pyridinyl)-2-pyrimidinyl]amino]benzoyl]-4-[(4-methyl-1-piperazinyl)methyl]benzeneamine]
5 | – | 60% | 71% | – | – | Cc1ccc(C(=O)NC2CCN(Cc3ccccc3)CC2)cc1Nc1nccc(-c2cccnc2)n1 [Example 5, 4-Methyl-N-[1-(phenylmethyl)-4-piperidinyl]-3-[[4-(3-pyridinyl)-2-pyrimidinyl]amino]benzamide]
6 | – | 42% | 8% | – | – | Cc1ccc(C(=O)NCCN2CCNC2=O)cc1Nc1nccc(-c2cccnc2)n1 [Example 57, 4-Methyl-N-[2-(2-oxo-1-imidazolidinyl)ethyl]-3-[[4-(3-pyridinyl)-2-pyrimidinyl]amino]benzamide]
7 | – | 10% | 42% | – | – | CCOC(=O)Cc1csc(NC(=O)c2ccc(C)c(Nc3nccc(-c4cccnc4)n3)c2)n1 [Example 16, 2-[[4-Methyl-3-[[4-(3-pyridinyl)-2-pyrimidinyl]amino]benzoyl]amino]-4-thiazoleacetic acid ethyl ester]
8 | – | 48% | 57% | – | – | Cc1ccc(C(=O)NCCN2CCOCC2)cc1Nc1nccc(-c2cccnc2)n1 [Example 10, 4-Methyl-N-(2-morpholinoethyl)-3-[[4-(3-pyridinyl)-2-pyrimidinyl]amino]-benzamide]
9 | – | 97% | 75% | – | – | Cc1ccc(C(=O)N2CCc3ccccc3C2)cc1Nc1nccc(-c2cccnc2)n1 [Example 44, 2-[4-Methyl-3-[[4-(3-pyridinyl)-2-pyrimidinyl]amino]benzoyl]-1,2,3,4-tetrahydro-isoquinoline]
10 | – | – | – | 54% | 43% | 4-Methyl-N-[(5-methylpyrazinyl)methyl]-3-[[4-(3-pyridinyl)-2-pyrimidinyl]amino]benzamide [Example 55]
11 | – | 39% | 44% | – | – | Cc1ccc(C(=O)NCC(C)C)cc1Nc1nccc(-c2cccnc2)n1 [Example 9, 4-Methyl-N-(2-methylpropyl)-3-[[4-(3-pyridinyl)-2-pyrimidinyl]amino]benzamide]
12 | – | 23% | 60% | – | – | COc1ccc(CCNC(=O)c2ccc(C)c(Nc3nccc(-c4cccnc4)n3)c2)cc1OC [Example 15, N-[2-(3,4-Dimethoxyphenyl)ethyl]-4-methyl-3-[[4-(3-pyridinyl)-2-pyrimidinyl]amino]benzamide]
13 | – | 83% | 75% | – | – | Cc1ccc(C(=O)N2CCC(O)(c3ccccc3)CC2)cc1Nc1nccc(-c2cccnc2)n1 [Example 59, 1-[4-Methyl-3-[[4-(3-pyridinyl)-2-pyrimidinyl]amino]benzoyl]-4-phenyl-4-piperidinol]
14 | – | 83% | 68% | – | – | CCN(CC)C(=O)c1ccc(C)c(Nc2nccc(-c3cccnc3)n2)c1 [Example 31, N,N-Diethyl-4-methyl-3-[[4-(3-pyridinyl)-2-pyrimidinyl]amino]benzamide]
15 | – | 67% | 90% | – | – | COc1ccc(NC(=O)c2ccc(C)c(Nc3nccc(-c4cccnc4)n3)c2)c(C)c1 [Example 23, N-(4-Methoxy-2-methylphenyl)-4-methyl-3-[[4-(3-pyridinyl)-2-pyrimidinyl]amino]benzamide]
16 | – | 73% | 44% | – | – | Cc1ccc(C(=O)NCc2ccc(N(C)C)cc2)cc1Nc1nccc(-c2cccnc2)n1 [Example 25, N-[[4-(Dimethylamino)phenyl]methyl]-4-methyl-3-[[4-(3-pyridinyl)-2-pyrimidinyl]amino]benzamide]
17 | – | 48% | 78% | – | – | Cc1ccc(C(=O)NC2CCCCC2)cc1Nc1nccc(-c2cccnc2)n1 [Example 13, N-Cyclohexyl-4-methyl-3-[[4-(3-pyridinyl)-2-pyrimidinyl]amino]benzamide]
18 | – | 81% | 70% | – | – | COc1ccc(CNC(=O)c2ccc(C)c(Nc3nccc(-c4cccnc4)n3)c2)cc1 [Example 8, N-[(4-Methoxyphenyl)methyl]-4-methyl-3-[[4-(3-pyridinyl)-2-pyrimidinyl]amino]benzamide]
19 | – | 57% | 51% | – | – | Cc1ccc(C(=O)NCc2ccco2)cc1Nc1nccc(-c2cccnc2)n1 [Example 1, N-(2-Furanylmethyl)-4-methyl-3-[[4-(3-pyridinyl)-2-Pyrimidinyl]amino]benzamide]
